Experimental data published in patent publication US20230295066A1, “Process for the Efficient Preparation of (Bio)-Alkanediols” (Symrise AG, priority 2020, published 2023).

Tests used:
Staphylococcus aureus = test: Minimum Inhibitory Concentration (MIC) test, synergy with antimicrobials; assay type: cell-based; conditions: for MICC: MIC value for Substance C alone; for MICB: MIC value for Substance B alone; for MICA: MIC value for Substance A alone
Method: (§1) The Minimum Inhibitory Concentration (MIC) test is a test on growth inhibition. The estimation of MICs is executed in 96 well plates. Through the comparison of bacterial growth with positive and negative controls via optical density (OD), different concentrations of given test substances are evaluated.
(§2) Bacteria were cultivated under adjusted conditions based on information of the German Collection of Microorganisms and Cell Cultures (DSMZ) and stored in 50% glycerol prior to use. Afterwards, the following method was applied: Growth medium (according to microorganism) was added to each well of the microplate. Then, the test-substances were added in different concentrations, positive controls (water controls only with medium) and negative controls (benchmarks according to organism). Finally, the microorganisms were added in a concentration of 10^6 CFU/ml (CFU=colony forming units). The incubation of the microplates was carried out at appropriate conditions.
(§3) According to the resulting growth, substance concentrations are labelled either as inhibiting or not and MIC is defined as the lowest concentration where a complete growth inhibition is visible. Experiments at concentration limits (highest concentration labelled as growth and lowest concentration labelled as inhibiting) are performed at least twice.
(§4) Minimum Inhibitory Concentration (MIC) are given in ppm.
The synergistic activity of different combinations of 1,2-nonanediol (C9 nonanediol) and 1,2-heptanediol (C7 heptanediol) as components A and C in combination with different antimicrobial compounds (component B) was determined by measuring the corresponding Minimum Inhibitory Concentrations (MIC).
To verify that the tested combinations act synergistically against microorganisms of the natural microbiota of mammalian skin, a corresponding experiment was conducted with Staphylococcus aureus, a well-known pathogen on the skin. The synergistic activities of 1,2-nonanediol (1,2-C9), 1,2-heptanediol (1,2-C7), 2,3-nonanediol (2,3-C9), 2,3-heptanediol (2,3-C7) and different antimicrobial compounds were determined by measuring the MIC of the mixture as indicated above.
In order to calculate the synergy index with MIC values, the Kull equation (equation 6) was used as follows:
SI=(MICmix×PA)/MICA+(MICmix×PB)/MICB+(MICmix×PC)/MICC Equation (6): Minimum Inhibitory Concentration
(§5) wherein • SI is the Synergy Index according to Kull • MICA is the MIC value for Substance A in ppm • MICB is the MIC value for Substance B in ppm • MICC is the MIC value for Substance C in ppm • MICmix is the MIC value for the mixture of substances A and B and C in ppm • PA is the proportion of the substance A in the mixture • PB is the proportion of the substance B in the mixture • PC is the proportion of the substance C in the mixture

Aspergillus brasiliensis = test: Minimum Inhibitory Concentration (MIC) test, alkanediol mixtures; assay type: cell-based; conditions: for MICB: Comp. B alone; for MICA: Comp. A alone
Method: as §1, §2, §3, §4
To verify that the tested combinations act synergistically against microorganisms of the natural microbiota of mammalian skin, a corresponding experiment was conducted with Aspergillus brasiliensis, a well-known pathogen on the skin. The synergistic activities of different alkanediol mixtures including a 1,2-alkanediol (substance A) and a 2,3-alkanediol (substance B) in ratios as specified in the following Table 5 were determined by measuring the MIC of the mixture as indicated in methods section.
In order to calculate the synergy index with MIC values, the Kull equation (I) was used as follows:
SI=(MICmix×PA)/MICA+(MICmix×PB)/MICB
as §5, with “B” for “B in ppm • MICC is the MIC value for Substance C”, “mixture” for “mixture • PC is the proportion of the substance C in the mixture”

[1] = test system: reactive oxygen species (ROS) on ex vivo skin; test: DCF assay, ROS score on ex vivo skin biopsies; assay type: cell-based; conditions: Cumene hydroperoxide 0.5M
Method: A dichlorofluorescein test (DCF) assay was performed in order to determine the amount of reactive oxygen species (ROS) on ex vivo skin treated with different test samples in a lipophilic or an aqueous/alcoholic system as described below.
DCF assay—assay principle: Ex vivo skin was incubated with 2′,7′-dichlorodihydrofluorescein diacetate at 37° C., 5% CO2. After PBS washing, the samples were exposed or not to cumene hydroperoxide. Immediately after exposure, ex vivo skin samples were frozen in liquid nitrogen and 5 μm cryostat sections were made and fixed with acetone to allow the visualization of fluorescence generated by ROS in cells of the reconstructed skins. The resulting fluorescence was measured at EX/EM 504/524 nm. Green fluorescence was quantified in ex vivo skin using ImageJ software. The depth of immunostaining was measured as follows: green DCFH-DE positive cells were automatically detected using Histolab software and the distance between dermal epidermal junction and the deepest positive cells were measured in each condition. Means were compared using a student's test. Two means were considered statistically different when p<0.005.
The image acquisition was performed by using Olympus BX51 microscope and Olympus DP70 camera. For each skin sample two skin sections have been taken and the related fluorescent images acquired and analysed. Thus, for each test condition, 12 images have been acquired and analysed (i.e. 12 data). The analysis of fluorescence has been performed within the dermis area. For each image the upper dermis has been analysed by evaluating the fluorescence through modified Image-J application (NIH, USA). The analysed area is selected from the upper part by following the perimeter of the basal lamina, to the deep dermis, by carefully avoiding the risk of including irregularities and agglomerates, such as blood vessels, sebaceous glands, hair follicles. The obtained value has been normalized upon the dimension of the selected area.
In addition, as positive control an AOX mix is always co-tested, i.e., as benchmark for the ROS analysis. The AOX mix is a mixture of the following antioxidants: 15% vitamin C, 1% vitamin E, 0.5% ferulic acid in a EtOH/H2O (50:50) mixture.
ROS score method description: The pigmentation score is based on the following process steps: • (1) Analysis of the image based on pixel grey intensities; • (2) Selection of an informative area excluding the pixel area not covered from tissue; • (3) Transformation of pixel grey intensities in degrees of L*; • (4) Normalization of the obtained values on the ratio between the selected area and the area of the slide.
An increased level of ROS (reactive oxygen species) led to an increased amount of fluorescence. […]

[2] = Solubility in sunflower oil; assay type: physicochemical; conditions: result in words

CCCCC(O)C(C)O (stereo not drawn) [2,3-C7, 2,3-heptanediol]
MICC (Staphylococcus aureus): 20000 ppm | MICB (Aspergillus brasiliensis): 7500 ppm

O=C(CCc1ccc(O)cc1)Nc1ccccc1C(=O)O [50 ppm DHAvD, Dihydroavenanthramide D]
ROS score, Mean Score ([1]; ex vivo skin, mean of 12 tests): 1.72 | D percent vs. - A cumene ([1]; ROS score): −14% | D percent vs. untreated cumene ([1]; ROS score): −21% | D percent vs. untreated/No cumene ([1]; ROS score): 1645%

CCCC(O)C(C)O (stereo not drawn) [2,3-C6, 2,3-hexanediol]
MICB (Aspergillus brasiliensis): 20000 ppm

OCc1ccccc1 [Benzyl alcohol, reference compound]
MICB (Staphylococcus aureus): 5000 ppm

CCCCC(O)CO (stereo not drawn) [1,2-C6, 1,2-hexanediol]
MICA (Aspergillus brasiliensis): 7500 ppm

CCCCCCCC(=O)NO [Capryl hydroxamic acid, reference compound]
MICB (Staphylococcus aureus): 1000 ppm

CCCCCC(O)C(C)O (stereo not drawn) [2,3-C8, 2,3-octanediol]
MICB (Aspergillus brasiliensis): 2500 ppm | Solubility in sunflower oil / oil phase [2]: good solubility

CCCCCC(O)CO (stereo not drawn) [1,2-C7, 1,2-heptanediol]
MICA (Staphylococcus aureus): 7500 ppm | MICA (Aspergillus brasiliensis): 5000 ppm

CCCCCCC(O)C(C)O (stereo not drawn) [2,3-C9, 2,3-nonanediol]
MICC (Staphylococcus aureus): 2500 ppm | MICB (Aspergillus brasiliensis): 1000 ppm

CCCCCCCC(O)CO (stereo not drawn) [1,2-C9, 1,2-nonanediol]
MICA (Staphylococcus aureus): 1000 ppm | MICA (Aspergillus brasiliensis): 500 ppm

o-Cymen-5-ol [reference compound]
MICB (Staphylococcus aureus): 250 ppm

CCCCCCC(O)CO (stereo not drawn) [1,2-C8, 1,2-octanediol]
MICA (Aspergillus brasiliensis): 2500 ppm | Solubility in sunflower oil / oil phase [2]: tends to precipitate or recrystallize
